In brackets after ≈: the same amount, converted by molar mass.
Conditions: buffer; pH 7.4; 6.0 h; 150.0 µM

| solubility kinetic | SMILES |
| --- | --- |
| 30.5 µg/mL (≈ 72.1 µM) | COc1ccc(-c2noc([C@@H]3Cc4nc[nH]c4CN3C(=O)NC3CCCCC3)n2)cc1 |
| > 61 µg/mL | CC(=O)c1c(C)[nH]c(C(=O)Nc2cccc([S+](=O)([O-])Nc3ccccn3)c2)c1C |
| < 1 µg/mL | O=[N+]([O-])c1cccc(CSc2nc3ncc(Br)cc3[nH]2)c1 |
| > 74 µg/mL | O=C(NC1CC1)C1CCCN1C(=O)c1cccc(-c2ccccn2)c1 (configuration not stated) |
| < 1 µg/mL | Cc1ccccc1C(=O)N1CCc2cc(-c3csc(NC(=O)Cc4ccc5c(c4)OCO5)n3)ccc21 |
| 21.4 µg/mL (≈ 48.4 µM) | O=C(O)c1ccc(O)c2ncc(N3CCCN(CCc4cccc5ccccc45)CC3)cc12 |
| 4.33 µg/mL (≈ 10.1 µM) | Cc1cc(NC(=S)N2CCN(c3cccc(C(F)(F)F)c3)CC2)nc2ccccc12 |
| < 1 µg/mL | FC(F)(F)c1cccc(N2CCN(C(=S)Nc3cc4ccccc4cn3)CC2)c1 |
| > 48 µg/mL | Cc1ccnc(NC(=S)N2CCN(c3ccc(N)cc3)CC2)c1 |
| < 1 µg/mL | Cc1ccc(NS(=O)(=O)c2cccc(C(=O)Nc3nc(-c4ccccc4)cs3)c2)cc1 |
| < 1 µg/mL | Cc1ccc(NC(=O)c2cc(S(=O)(=O)NCCC3=CCCCC3)ccc2F)cc1F |
| 1.27 µg/mL (≈ 3.59 µM) | C#CCNC(=O)c1nc(-c2ccc([S+](C)(=O)[O-])cc2)c2ccccn12 |
| < 1 µg/mL | Cc1c(C(=O)NN2CCCCC2)nn(-c2ccc(Cl)cc2Cl)c1-c1ccc(Cl)cc1 |
| 36.9 µg/mL (≈ 117 µM) | CN1CCCN(C(c2ccccc2)c2ccc(Cl)cc2)CC1 (configuration not stated) |
| > 60 µg/mL | COc1ccc(C(=O)N2CCCC(c3nn(-c4ccc(OC)cc4)c(=O)[nH]3)C2)cc1 (configuration not stated) |
| 5.59 µg/mL (≈ 15.5 µM) | Cc1cccc(-n2cnc3cc(C(=O)N4CCCC(C(C)C)C4)ccc32)c1 (configuration not stated) |
| 2.06 µg/mL (≈ 5.34 µM) | Nc1nc2c(s1)C(c1ccccc1OCc1ccccc1Cl)CC(=O)N2 (configuration not stated) |
| 32.1 µg/mL (≈ 81.7 µM) | CC(C)c1ccccc1-c1ncc(F)c(NCC2CCN(c3cnccn3)C2)n1 (configuration not stated) |
| 38.5 µg/mL (≈ 124 µM) | CC(C)(C)CN1CCNc2cc(Nc3ccccc3)ncc2C1 |
| 45.4 µg/mL (≈ 126 µM) | COc1ccc(CN2CCNc3cc(Nc4ccccc4)ncc3C2)cc1 |
| > 49 µg/mL | NC(=O)C1CCN(c2nc(-c3ccccc3[N+](=O)[O-])cs2)CC1 |
| < 1 µg/mL | Cc1ccc(S(=O)(=O)Nc2cccnc2C(=O)Nc2nc(-c3ccccc3)cs2)cc1 |
| 9.16 µg/mL (≈ 22.9 µM) | O=C1Nc2ccc(C(=O)c3ccco3)cc2/C1=C/c1cc(Cl)c(O)c(Cl)c1 |

| solubility kinetic | SMILES |
| --- | --- |
| 8.28 µg/mL (≈ 24.3 µM) | CC(C)Oc1cccc(-c2ccnc(N3CCC(C(N)=O)CC3)n2)c1 |
| < 1 µg/mL | CCN1C(=O)c2ccccc2[S@](=O)c2ccc(C(=O)N[C@H](C)c3ccc(Br)cc3)cc21 |
| < 1 µg/mL | Cc1noc(/C=C/c2ccccc2F)c1S(=O)(=O)N1CCC(C(=O)Nc2ccc(C#N)cc2)CC1 |
| > 100 µg/mL | COC[C@@H]1CN(C(=O)c2n[nH]c3ccccc23)C[C@H]1c1nc(C)no1 |
| 8.93 µg/mL (≈ 21.3 µM) | O=C(NCCO)c1cccc(-c2cc(Nc3ccc(OC(F)(F)F)cc3)ncn2)c1 |
| 21 µg/mL (≈ 52.5 µM) | COc1cc2c(c(OC)c1OC)-c1ccc(OC)c(=O)cc1[C@@H](NC(C)=O)CC2 |
| > 64 µg/mL | O=C(Cc1ccc(Cl)c(Cl)c1)Nc1ccc(S(=O)(=O)Nc2cncnc2)cc1 |
| < 1 µg/mL | COc1ccc2c(c1)CCc1c-2n[nH]c1C(=O)N1CCc2c(nc3cc(-c4ccccc4)[nH]n3c2=O)C1 |
| < 1 µg/mL | COc1cc(C(=O)N2CCN(c3cc(Cl)ccc3Cl)CC2)cc(OC)c1OC |
| < 1 µg/mL | COc1cccc(Nc2ncc(-c3cccc(N(C)C)c3)c3c2OCC3)c1 |
| > 59 µg/mL | Nc1ncnc2c1C(=O)N(c1ccc(C3CCC(CC(=O)O)CC3)cc1)CCO2 (configuration not stated) |
| < 1 µg/mL | N#Cc1ccc(NS(=O)(=O)c2ccc(NC(=O)Cc3ccc(F)c(Cl)c3)cc2)cc1 |
| 12.2 µg/mL (≈ 25.1 µM) | Cc1ccccc1C(C(=O)NC1CCCC1)N(C(=O)Cn1cnc2ccccc21)c1cccc(F)c1 (configuration not stated) |
| > 55 µg/mL | O=C(c1ccc2c(c1)ncn2-c1ccc(C(F)(F)F)cc1)N1CCCCC1 |
| < 1 µg/mL | CC(C)(C)c1ccc(-c2csc(N3CCC(C(N)=O)CC3)n2)cc1 |
| < 1 µg/mL | N=c1c2c(ccn1CCc1ccccc1)Oc1ccc3ccccc3c1C2c1ccccc1 (configuration not stated) |
| > 57 µg/mL | C[S+](=O)([O-])c1ccc(-c2nc(C(=O)N3CCOCC3)n3ccccc23)cc1 |
| 2.59 µg/mL (≈ 7.75 µM) | Fc1cc(F)cc(Nc2nc(-c3ccncc3)nc3ccccc23)c1 |
| 14.1 µg/mL (≈ 38.2 µM) | CC(=O)c1cccc(-c2csc3ncnc(Sc4nnnn4C)c23)c1 |
| 22.7 µg/mL (≈ 76.7 µM) | CS(=O)(=O)c1ccc2nc(NC(=O)C3CC3)sc2c1 |
| 3.16 µg/mL (≈ 7.87 µM) | O=C1CCCC2=C1C(c1[nH]ncc1Cl)N=C(Nc1nc3cc(F)ccc3o1)N2 (configuration not stated) |
| < 1 µg/mL | CCc1ccc(-n2c(=O)c3cccnc3n2CC(=O)Nc2cc(OC)ccc2OC)cc1 |
| < 1 µg/mL | Cc1nnc(-c2ccccc2C(C)C)nc1NCc1ccc(-c2cccnc2)cc1 |

| solubility kinetic | SMILES |
| --- | --- |
| < 1 µg/mL | COc1ccc(-c2ccc3nc(-c4cc(F)cc(F)c4F)oc3c2)c(OC)c1OC |
| 35.3 µg/mL (≈ 123 µM) | COc1ccc(NC(=O)c2[nH]c(C)c(C(C)=O)c2C)cc1 |
| < 1 µg/mL | CCC(Sc1nc2ccccc2c2nc(CCc3c(C)n[nH]c3C)nn12)C(=O)Nc1ccc(F)cc1 (configuration not stated) |
| < 1 µg/mL | CC(C)(C)c1ccc(-c2ccc(=O)n(CC(=O)NCCc3ccccc3)n2)cc1 |
| > 50 µg/mL | CCOC(=O)c1ccnc(CNCC(=O)N(CC)CCN(C)C)c1 |
| < 1 µg/mL | N#CC1(c2ccc(NC(=O)c3cccnc3NCc3ccncc3)cc2)CCCC1 |
| > 56 µg/mL | COC(=O)c1ccc(NS(=O)(=O)c2c(C)nc3sccn3c2=O)cc1 |
| < 1 µg/mL | CCc1cccc(NS(=O)(=O)c2ccc3c(c2)CC(C)N3C(=O)C2CC2)c1 (configuration not stated) |
| > 62 µg/mL | O=C(NC1CC1)c1nc(-c2cccnc2)c2ccccn12 |
| 4.45 µg/mL (≈ 10.4 µM) | O=C(Nc1ccccc1C(=O)Nc1ccccc1C(=O)NCc1ccco1)c1ccco1 |
| < 1 µg/mL | COc1ccc(C(=O)Nc2nc(-c3ccccc3)cs2)cc1NS(=O)(=O)c1ccc(C)cc1 |
| < 1 µg/mL | COC(=O)[C@H](NC(=O)c1cc(-c2ccccc2)nc2ccccc12)c1ccccc1 |
| 11.7 µg/mL (≈ 33.8 µM) | CC(C)Oc1ccc(-c2csc(N3CCC(C(N)=O)CC3)n2)cc1 |
| < 1 µg/mL | COc1nccc(-c2nc(Nc3ccc(F)c(F)c3)c3ccccc3n2)c1Cl |
| 5.58 µg/mL (≈ 17.9 µM) | COCC(C)Nc1ncnc2c1cnn2-c1ccc(C)c(C)c1 (configuration not stated) |
| > 55 µg/mL | Cn1c2cc(S(C)=O)sc2c2cnn(Cc3cccc(N)c3)c(=O)c21 (configuration not stated) |
| > 58 µg/mL | O=c1[nH]c(N2CCOCC2)nc2c1CCN(Cc1ccc(Cl)cc1F)CC2 |
| < 1 µg/mL | Cc1ccc(S(=O)(=O)NCCC(=O)Nc2nc(-c3ccccc3)cs2)cc1 |
| 1.3 µg/mL (≈ 3.93 µM) | O=C(NCc1ccc(N2CCCC2)nc1)c1cc(Cl)ccc1O |
| < 1 µg/mL | Cc1ccc(O)c(-c2cc(-c3ccccc3C)[nH]n2)c1 |
| 4.07 µg/mL (≈ 11.1 µM) | Cc1ccc(-n2ncc3c(NCCCn4ccnc4)ncnc32)cc1Cl |
| 3.07 µg/mL (≈ 11.3 µM) | O=C1Nc2ccccc2/C1=C/c1ccnc2ccccc12 |
| 13.4 µg/mL (≈ 35.9 µM) | O=C1CCc2cc(S(=O)(=O)Nc3ccc(F)c(Cl)c3)c(F)cc2N1 |

| SMILES | solubility kinetic |
| --- | --- |
| COc1ccc(Cl)cc1NC(=O)c1sc2nc3c(cc2c1N)N1CCC3CC1 | < 1 µg/mL |
| CN1Cc2c(ccc3c2OCO3)[C@@H]2[C@H]1c1cc3c(cc1C[C@@H]2O)OCO3 | > 52 µg/mL |
| Fc1ccc(Nc2nc(C3=CCNCC3)nc3ccccc23)cc1F | > 50 µg/mL |

— PubChem BioAssay AID1645848
